These results are taken from patent US8497361B2, “Topoisomerase binding probe and method of use” (priority 2010, dated 2013).

pKi: −log10 of the molar value.

In assay [1] the target is T1, E. coli gyrase A2B2 heterotetramer (Escherichia coli, UniProt P0AES6).
T1 construct: purchased Topogen
Kind of assay: Gyrase activity assay (supercoiling of relaxed plasmid DNA). In kind it is biochemical. To be noted: 50 μM compound, 0.5 μg relaxed DNA, 1 hour at 37° C., agarose gel.

Another assay has as its target F. tularensis GyrB (Francisella tularensis subsp. tularensis, UniProt Q5NHE7). Kind of assay: biochemical. The format is binding.

F. tularensis GyrB, sequence (Q5NHE7 1-805): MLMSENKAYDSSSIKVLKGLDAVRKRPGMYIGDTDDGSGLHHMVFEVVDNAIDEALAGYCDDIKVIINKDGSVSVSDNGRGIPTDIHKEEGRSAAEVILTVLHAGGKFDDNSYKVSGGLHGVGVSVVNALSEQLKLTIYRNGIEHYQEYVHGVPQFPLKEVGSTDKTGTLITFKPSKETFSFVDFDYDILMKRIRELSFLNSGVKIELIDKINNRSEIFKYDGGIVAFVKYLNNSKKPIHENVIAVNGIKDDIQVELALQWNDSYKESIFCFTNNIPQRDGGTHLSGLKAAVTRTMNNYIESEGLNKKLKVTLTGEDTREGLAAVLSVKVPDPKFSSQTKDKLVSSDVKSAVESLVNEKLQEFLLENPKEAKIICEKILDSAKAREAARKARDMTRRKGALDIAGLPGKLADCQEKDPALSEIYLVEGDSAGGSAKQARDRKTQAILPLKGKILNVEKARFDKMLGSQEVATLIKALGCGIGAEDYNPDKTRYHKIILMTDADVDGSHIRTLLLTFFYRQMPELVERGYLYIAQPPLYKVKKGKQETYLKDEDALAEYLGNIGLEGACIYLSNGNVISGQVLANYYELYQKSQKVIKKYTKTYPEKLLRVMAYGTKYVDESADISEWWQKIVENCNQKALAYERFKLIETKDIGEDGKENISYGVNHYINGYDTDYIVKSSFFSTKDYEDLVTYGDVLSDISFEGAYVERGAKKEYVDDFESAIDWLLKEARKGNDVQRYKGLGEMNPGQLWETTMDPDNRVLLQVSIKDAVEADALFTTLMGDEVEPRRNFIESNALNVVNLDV

With `COc1cccc2c1C(=O)c1c(O)c3c(c(O)c1C2=O)C[C@@](O)(C(C)=O)C[C@@H]3O[C@H]1C[C@H](N)[C@H](O)[C@H](C)O1` [daunorubicin], in assay [1], the “inhibition of supercoiling of relaxed DNA” value (from here on “inhibition”) is “less clear”. Also, the pKi – broadly, the negative decadic logarithm of the Ki, by convention in mol/L – on F. tularensis GyrB was 6.35.

Take `COc1cccc2c1C(=O)c1c(O)c3c(c(O)c1C2=O)C[C@@](O)(C(=O)CO)C[C@@H]3O[C@H]1C[C@H](N)[C@H](O)[C@H](C)O1` [doxorubicin]: in assay [1], the “inhibition” value is reported as “inhibit supercoiling to the level of the no gyrase control”. At F. tularensis GyrB, this molecule gave a pKi of 7.03.

Turning to `COc1cccc2c1C(=O)c1c(O)c3c(c(O)c1C2=O)C[C@@](O)(C(=O)CO)C[C@@H]3O[C@H]1C[C@H](N)[C@@H](O)[C@H](C)O1` [epirubicin], the “inhibition” value in assay [1] was “inhibit supercoiling to the level of the no gyrase control”. In addition, the negative logarithm of the Ki (pKi) at F. tularensis GyrB was 6.41.

On to `CC(=O)[C@]1(O)Cc2c(O)c3c(c(O)c2[C@@H](O[C@H]2C[C@H](N)[C@H](O)[C@H](C)O2)C1)C(=O)c1ccccc1C3=O` [idarubicin], for which, in assay [1], the “inhibition” value is “less clear”. On F. tularensis GyrB, this molecule had a pKi of 6.32.
